Columns and labels:
[1] = target: T1, human KCNMA1 (hum KCNMA1) (Homo sapiens, UniProt Q12791); test: whole cell patch clamp, transfected HEK293 cells; transient facilitation then inhibition at […]; format: cell-based
T1 construct: KCNMA1 variant 2/isoform b (NP_002238), expressed in HEK293 cells

Drosophila Slo (Dm Slo) = target: T2, Drosophila Slo (Dm Slo) (Drosophila melanogaster, UniProt Q03720); test: whole cell voltage clamp, CHO cells stably expressing Dm Slo, dose-response; format: cell-based
T2 construct: alpha subunit, stably expressed in CHO cells
T2 sequence (Q03720 whole entry): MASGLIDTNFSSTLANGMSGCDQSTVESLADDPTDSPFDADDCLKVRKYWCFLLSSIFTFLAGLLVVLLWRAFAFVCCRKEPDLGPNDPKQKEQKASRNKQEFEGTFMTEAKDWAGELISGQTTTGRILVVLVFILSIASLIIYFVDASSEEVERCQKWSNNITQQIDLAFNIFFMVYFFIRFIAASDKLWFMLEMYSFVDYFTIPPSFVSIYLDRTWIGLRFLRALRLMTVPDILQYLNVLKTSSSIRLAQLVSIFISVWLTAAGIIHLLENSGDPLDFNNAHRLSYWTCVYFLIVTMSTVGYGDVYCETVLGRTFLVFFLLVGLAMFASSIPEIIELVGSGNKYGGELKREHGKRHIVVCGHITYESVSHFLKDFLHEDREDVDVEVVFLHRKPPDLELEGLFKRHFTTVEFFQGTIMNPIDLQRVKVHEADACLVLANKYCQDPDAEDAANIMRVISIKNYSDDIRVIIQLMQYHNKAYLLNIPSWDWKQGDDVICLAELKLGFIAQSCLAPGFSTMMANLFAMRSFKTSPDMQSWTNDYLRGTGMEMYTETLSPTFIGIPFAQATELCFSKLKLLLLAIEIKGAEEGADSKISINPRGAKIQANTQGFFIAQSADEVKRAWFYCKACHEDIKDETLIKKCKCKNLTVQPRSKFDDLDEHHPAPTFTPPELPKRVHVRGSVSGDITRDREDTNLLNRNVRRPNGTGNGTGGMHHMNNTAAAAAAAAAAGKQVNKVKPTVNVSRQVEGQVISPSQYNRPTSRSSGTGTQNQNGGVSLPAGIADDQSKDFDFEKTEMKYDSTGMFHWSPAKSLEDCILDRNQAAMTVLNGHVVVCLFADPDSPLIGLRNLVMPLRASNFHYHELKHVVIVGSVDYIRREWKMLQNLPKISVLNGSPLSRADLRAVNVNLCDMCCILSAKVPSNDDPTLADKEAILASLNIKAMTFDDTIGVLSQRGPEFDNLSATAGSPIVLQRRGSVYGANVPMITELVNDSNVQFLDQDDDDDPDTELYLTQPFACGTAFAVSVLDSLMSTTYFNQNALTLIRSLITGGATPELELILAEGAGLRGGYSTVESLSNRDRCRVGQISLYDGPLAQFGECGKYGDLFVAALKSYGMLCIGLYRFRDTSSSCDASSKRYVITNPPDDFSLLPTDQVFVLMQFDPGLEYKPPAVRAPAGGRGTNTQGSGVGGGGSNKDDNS

T1 sequence (Q12791 whole entry, canonical isoform): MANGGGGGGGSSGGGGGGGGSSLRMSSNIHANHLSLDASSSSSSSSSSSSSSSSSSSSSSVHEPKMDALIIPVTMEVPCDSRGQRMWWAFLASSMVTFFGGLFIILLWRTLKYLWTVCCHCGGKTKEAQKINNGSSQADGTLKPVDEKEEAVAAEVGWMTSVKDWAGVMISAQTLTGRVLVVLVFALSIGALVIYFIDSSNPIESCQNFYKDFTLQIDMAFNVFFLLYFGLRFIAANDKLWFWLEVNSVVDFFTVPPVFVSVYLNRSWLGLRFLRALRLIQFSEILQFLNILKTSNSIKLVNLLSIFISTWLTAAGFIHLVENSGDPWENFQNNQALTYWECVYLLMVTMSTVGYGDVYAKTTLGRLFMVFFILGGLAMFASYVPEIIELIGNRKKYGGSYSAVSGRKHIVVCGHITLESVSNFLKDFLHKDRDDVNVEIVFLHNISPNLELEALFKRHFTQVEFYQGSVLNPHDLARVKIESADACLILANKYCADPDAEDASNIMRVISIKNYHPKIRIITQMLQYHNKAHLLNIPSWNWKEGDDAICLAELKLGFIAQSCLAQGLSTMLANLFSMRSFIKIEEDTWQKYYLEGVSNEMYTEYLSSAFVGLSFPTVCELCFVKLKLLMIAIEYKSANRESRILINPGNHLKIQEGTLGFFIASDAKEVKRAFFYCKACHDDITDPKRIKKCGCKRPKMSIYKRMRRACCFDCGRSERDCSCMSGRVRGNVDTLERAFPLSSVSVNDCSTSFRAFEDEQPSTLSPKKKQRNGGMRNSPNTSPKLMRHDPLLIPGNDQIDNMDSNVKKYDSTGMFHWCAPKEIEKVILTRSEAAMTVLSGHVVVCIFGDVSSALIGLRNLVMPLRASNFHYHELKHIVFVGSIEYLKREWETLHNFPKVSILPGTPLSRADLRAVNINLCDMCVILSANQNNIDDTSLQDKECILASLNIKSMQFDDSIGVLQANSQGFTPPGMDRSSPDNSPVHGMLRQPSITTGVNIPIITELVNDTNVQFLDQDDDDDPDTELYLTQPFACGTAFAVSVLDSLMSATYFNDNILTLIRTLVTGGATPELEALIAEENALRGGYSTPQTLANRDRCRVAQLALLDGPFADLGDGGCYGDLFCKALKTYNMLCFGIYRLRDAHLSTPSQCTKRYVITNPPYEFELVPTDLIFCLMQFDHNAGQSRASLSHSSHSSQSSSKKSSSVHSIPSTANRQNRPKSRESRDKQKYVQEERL

Row | SMILES | whole cell patch clamp, transfected HEK293 cells; transient facilitation then in [1] | IC50 (Drosophila Slo (Dm Slo)) [nM]
1 | CC(C)C[C@H]1C(=O)O[C@H](Cc2ccc(N3CCOCC3)cc2)C(=O)N(C)[C@@H](CC(C)C)C(=O)O[C@H](C)C(=O)N(C)[C@@H](CC(C)C)C(=O)O[C@H](Cc2ccc(N3CCOCC3)cc2)C(=O)N(C)[C@@H](CC(C)C)C(=O)O[C@H](C)C(=O)N1C [emodepside] | In HEK293 cells expressing KCNMA1 emodepside elicited a biphasic, concentration-dependent effect on current amplitude | –
2 | C=C(C)[C@H]1O[C@H]2CC[C@@]3(C)[C@@](O)(CC[C@H]4[C@@H]5OC(C)(C)[C@H]6C[C@@H]7C(=C)Cc8c(Cl)cc9[nH]c(c5c9c8[C@@]76O)[C@@]43C)[C@@]23O[C@H]3[C@H]1O [penitrem A] | – | 0.5
3 | COc1ccc2c3c4n(c2c1)[C@H](C=C(C)C)OOC(C)(C)C[C@@H]4N1C(=O)[C@@H]2CCCN2C(=O)[C@]1(O)[C@H]3O [verruculogen] | – | 6.2
